# Reference: US8952024B2, “Herbicidal pyrimidone derivatives” (E I du Pont de Nemours and Company, priority 2009, dated 2015)
# Where two headings read alike, the source gives them in different places.
# What was measured:
# Assay in all cases: Test B pre-/postemergence plant response
# Assay type in all cases: in vivo
# [1] = test system: corn (Zea mays); conditions: for Corn plant response rating (crop injury, 0 = no effect, 100 = complete kill) at 31 g/ha: 31 g ai/ha; for Corn plant response rating (crop injury, 0 = no effect, 100 = complete kill) at 62 g/ha: 62 g ai/ha; for Corn plant response rating (crop injury, 0 = no effect, 100 = complete kill) at 125 g/ha: 125 g ai/ha
# Summary of the method: (§1)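 Test compounds, formulated in a non-phytotoxic solvent mixture with surfactant, are applied to the soil surface (loam and sand blend) right after seeding, or sprayed over plants at the 1- to 4-leaf stage grown in peat moss/vermiculite medium. After 13 to 15 days under glasshouse conditions, each species is scored visually from 0 (no effect) to 100 (complete control) against controls.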
# [2] = test system: yellow nutsedge (Cyperus esculentus); conditions: for pest or weed control at 31 g/ha: 31 g ai/ha; for pest or weed control at 62 g/ha: 62 g ai/ha; for pest or weed control at 125 g/ha: 125 g ai/ha
# Summary of the method: as §1
# [3] = test system: giant foxtail (Setaria faberii); conditions: for pest or weed control at 31 g/ha: 31 g ai/ha; for pest or weed control at 62 g/ha: 62 g ai/ha; for pest or weed control at 125 g/ha: 125 g ai/ha
# Summary of the method: as §1
# [4] = test system: bermudagrass (Cynodon dactylon); conditions: for pest or weed control at 31 g/ha: 31 g ai/ha; for pest or weed control at 62 g/ha: 62 g ai/ha; for pest or weed control at 125 g/ha: 125 g ai/ha
# Summary of the method: as §1
# [5] = test system: goosegrass (Eleusine indica); conditions: for pest or weed control at 31 g/ha: 31 g ai/ha; for pest or weed control at 62 g/ha: 62 g ai/ha; for pest or weed control at 125 g/ha: 125 g ai/ha
# Summary of the method: as §1
# [6] = test system: johnsongrass (Sorghum halepense); conditions: for pest or weed control at 31 g/ha: 31 g ai/ha; for pest or weed control at 62 g/ha: 62 g ai/ha; for pest or weed control at 125 g/ha: 125 g ai/ha
# Summary of the method: as §1
# [7] = test system: downy bromegrass (Bromus tectorum); conditions: Bromus tectorum, post-emergence, Postemergence, read-out: Plant response rating, Bromegrass, Downy
# Summary of the method: as §1
# [8] = Preemergence, 250 g ai/ha, 0 to 100 scale
# [9] = Zea mays, pre-emergence, Preemergence, scale 0 to 100 (0 no effect, 100 complete control)
# [10] = Cyperus, pre-emergence, Preemergence, scale 0 to 100 (0 no effect, 100 complete control), read-out: Plant response rating, Nutsedge, Yellow
# [11] = Setaria faberi, pre-emergence, Preemergence, scale 0 to 100 (0 no effect, 100 complete control), read-out: Plant response rating, Foxtail, Giant
# [12] = Cynodon dactylon, pre-emergence, Preemergence, scale 0 to 100 (0 no effect, 100 complete control), read-out: Plant response rating, Bermudagrass
# [13] = Eleusine indica, pre-emergence, Preemergence, scale 0 to 100 (0 no effect, 100 complete control), read-out: Plant response rating, Goosegrass
# [14] = Sorghum halepense, pre-emergence, Preemergence, scale 0 to 100 (0 no effect, 100 complete control), read-out: Plant response rating, Johnsongrass
smiles,measurement,setting,value
"COCCn1c(-c2cc(F)cc(F)c2)ncc(C(=O)C2=C(O)C3CCC(C3)C2=O)c1=O (stereo not drawn) [Compound 243, 2-(3,5-difluorophenyl)-5-[(2-hydroxy-4-oxobicyclo[3.2.1]oct-2-en-3-yl)carbonyl]-3-(2-methoxyethyl)-4(3H)-pyrimidinone]",Corn plant response rating,[1]; [8],95
same,"Corn plant response rating (crop injury, 0 = no effect, 100 = complete kill) at 31 g/ha","[1]; Zea mays, post-emergence, Postemergence, 0 to 100 scale (0 no effect, 100 complete control)",90%
same,"Corn plant response rating (crop injury, 0 = no effect, 100 = complete kill) at 62 g/ha","[1]; Zea mays, post-emergence, Postemergence, scale 0 to 100 (0 no effect, 100 complete control)",95%
same,"Corn plant response rating (crop injury, 0 = no effect, 100 = complete kill) at 125 g/ha","[1]; Zea mays, post-emergence, Postemergence, scale 0 (no effect) to 100 (complete control), 13 to 15 days",100%
same,"Corn plant response rating (crop injury, 0 = no effect, 100 = complete kill) at 250 g/ha","[1]; Zea mays, post-emergence, Postemergence, 250 g ai/ha, scale 0 to 100 (0 no effect, 100 complete control), 13 to 15 days",100%
same,"Corn plant response rating (crop injury, 0 = no effect, 100 = complete kill) at 31 g/ha",[1]; [9],65%
same,"Corn plant response rating (crop injury, 0 = no effect, 100 = complete kill) at 62 g/ha",[1]; [9],75%
same,"Corn plant response rating (crop injury, 0 = no effect, 100 = complete kill) at 125 g/ha","[1]; Zea mays, pre-emergence, Preemergence, scale 0 to 100, 0 no effect, 100 complete control",85%
same,pest or weed control at 31 g/ha,"[2]; Cyperus, post-emergence, Postemergence, 0 to 100 scale (0 no effect, 100 complete control), read-out: Plant response rating, Nutsedge, Yellow",65%
same,pest or weed control at 62 g/ha,"[2]; Cyperus, post-emergence, Postemergence, scale 0 to 100 (0 no effect, 100 complete control), read-out: Plant response rating, Nutsedge, Yellow",65%
same,pest or weed control at 125 g/ha,"[2]; Cyperus, post-emergence, Postemergence, scale 0 (no effect) to 100 (complete control), 13 to 15 days, read-out: Plant response rating, Nutsedge, Yellow",70%
same,pest or weed control at 250 g/ha,"[2]; Cyperus, post-emergence, Postemergence, 250 g ai/ha, scale 0 to 100 (0 no effect, 100 complete control), 13 to 15 days, read-out: Plant response rating, Nutsedge, Yellow",85%
same,pest or weed control at 31 g/ha,[2]; [10],65%
same,pest or weed control at 62 g/ha,[2]; [10],80%
same,pest or weed control at 125 g/ha,"[2]; Cyperus, pre-emergence, Preemergence, scale 0 to 100, 0 no effect, 100 complete control, read-out: Plant response rating, Nutsedge, Yellow",90%
same,"Nutsedge, Yellow plant response rating",[2]; [8],95
same,"Foxtail, Giant plant response rating",[3]; [8],95
same,pest or weed control at 31 g/ha,"[3]; Setaria faberi, post-emergence, Postemergence, 0 to 100 scale (0 no effect, 100 complete control), read-out: Plant response rating, Foxtail, Giant",95%
same,pest or weed control at 62 g/ha,"[3]; Setaria faberi, post-emergence, Postemergence, scale 0 to 100 (0 no effect, 100 complete control), read-out: Plant response rating, Foxtail, Giant",95%
same,pest or weed control at 125 g/ha,"[3]; Setaria faberi, post-emergence, Postemergence, scale 0 (no effect) to 100 (complete control), 13 to 15 days, read-out: Plant response rating, Foxtail, Giant",98%
same,pest or weed control at 250 g/ha,"[3]; Setaria faberi, post-emergence, Postemergence, 250 g ai/ha, scale 0 to 100 (0 no effect, 100 complete control), 13 to 15 days, read-out: Plant response rating, Foxtail, Giant",98%
same,pest or weed control at 31 g/ha,[3]; [11],55%
same,pest or weed control at 62 g/ha,[3]; [11],85%
same,pest or weed control at 125 g/ha,"[3]; Setaria faberi, pre-emergence, Preemergence, scale 0 to 100, 0 no effect, 100 complete control, read-out: Plant response rating, Foxtail, Giant",95%
same,pest or weed control at 31 g/ha,"[4]; Cynodon dactylon, post-emergence, Postemergence, 0 to 100 scale (0 no effect, 100 complete control), read-out: Plant response rating, Bermudagrass",98%
same,pest or weed control at 62 g/ha,"[4]; Cynodon dactylon, post-emergence, Postemergence, scale 0 to 100 (0 no effect, 100 complete control), read-out: Plant response rating, Bermudagrass",98%
same,pest or weed control at 125 g/ha,"[4]; Cynodon dactylon, post-emergence, Postemergence, scale 0 (no effect) to 100 (complete control), 13 to 15 days, read-out: Plant response rating, Bermudagrass",100%
same,pest or weed control at 250 g/ha,"[4]; Cynodon dactylon, post-emergence, Postemergence, 250 g ai/ha, scale 0 to 100 (0 no effect, 100 complete control), 13 to 15 days, read-out: Plant response rating, Bermudagrass",100%
same,pest or weed control at 31 g/ha,[4]; [12],100%
same,pest or weed control at 62 g/ha,[4]; [12],100%
same,pest or weed control at 125 g/ha,"[4]; Cynodon dactylon, pre-emergence, Preemergence, scale 0 to 100, 0 no effect, 100 complete control, read-out: Plant response rating, Bermudagrass",100%
same,Bermudagrass plant response rating,"[4]; Preemergence, 250 g ai/ha, 0 to 100 scale, 0 no effect, 100 complete control",100
same,pest or weed control at 31 g/ha,"[5]; Eleusine indica, post-emergence, Postemergence, 0 to 100 scale (0 no effect, 100 complete control), read-out: Plant response rating, Goosegrass",95%
same,pest or weed control at 62 g/ha,"[5]; Eleusine indica, post-emergence, Postemergence, scale 0 to 100 (0 no effect, 100 complete control), read-out: Plant response rating, Goosegrass",95%
same,pest or weed control at 125 g/ha,"[5]; Eleusine indica, post-emergence, Postemergence, scale 0 (no effect) to 100 (complete control), 13 to 15 days, read-out: Plant response rating, Goosegrass",98%
same,pest or weed control at 250 g/ha,"[5]; Eleusine indica, post-emergence, Postemergence, 250 g ai/ha, scale 0 to 100 (0 no effect, 100 complete control), 13 to 15 days, read-out: Plant response rating, Goosegrass",98%
same,pest or weed control at 31 g/ha,[5]; [13],98%
same,pest or weed control at 62 g/ha,[5]; [13],100%
same,pest or weed control at 125 g/ha,"[5]; Eleusine indica, pre-emergence, Preemergence, scale 0 to 100, 0 no effect, 100 complete control, read-out: Plant response rating, Goosegrass",100%
same,Goosegrass plant response rating,[5]; [8],100
same,Johnsongrass plant response rating,[6]; [8],100
same,pest or weed control at 31 g/ha,"[6]; Sorghum halepense, post-emergence, Postemergence, 0 to 100 scale (0 no effect, 100 complete control), read-out: Plant response rating, Johnsongrass",100%
same,pest or weed control at 62 g/ha,"[6]; Sorghum halepense, post-emergence, Postemergence, scale 0 to 100 (0 no effect, 100 complete control), read-out: Plant response rating, Johnsongrass",100%
same,pest or weed control at 125 g/ha,"[6]; Sorghum halepense, post-emergence, Postemergence, scale 0 (no effect) to 100 (complete control), 13 to 15 days, read-out: Plant response rating, Johnsongrass",100%
same,pest or weed control at 250 g/ha,"[6]; Sorghum halepense, post-emergence, Postemergence, 250 g ai/ha, scale 0 to 100 (0 no effect, 100 complete control), 13 to 15 days, read-out: Plant response rating, Johnsongrass",100%
same,pest or weed control at 31 g/ha,[6]; [14],70%
same,pest or weed control at 62 g/ha,[6]; [14],95%
same,pest or weed control at 125 g/ha,"[6]; Sorghum halepense, pre-emergence, Preemergence, scale 0 to 100, 0 no effect, 100 complete control, read-out: Plant response rating, Johnsongrass",95%
same,pest or weed control at 31 g/ha,"[7]; 31 g ai/ha, 0 to 100 scale (0 no effect, 100 complete control)",50%
same,pest or weed control at 62 g/ha,"[7]; 62 g ai/ha, scale 0 to 100 (0 no effect, 100 complete control)",70%
same,pest or weed control at 125 g/ha,"[7]; 125 g ai/ha, scale 0 (no effect) to 100 (complete control), 13 to 15 days",95%
